This is an account of results in paper PMC11792831, “Design and synthesis of doublecortin-like kinase 1 inhibitors and their bioactivity evaluation” (Journal of Enzyme Inhibition and Medicinal Chemistry, 2023).

The test system of one series is HCT116. In words: In vitro cytotoxicity / anti-proliferation assay (CCK8). Format: cell-based. The following applies: Homo sapiens, HCT-116, colorectal cancer cell line HCT116, 72 h. The protocol:
To determine whether DCLK1 was required for tumour cell proliferation, the cytotoxicity of compounds was evaluated in colorectal cancer cell line HCT116. HCT116 was treated with compounds for 72 h, and the cell viability was determined using CCK8 assay (Figure 4). The antiproliferative effects of most compounds on HCT116 were correlated with their DCLK1 inhibitory activities, except for compounds D1 and D2. The poor cytotoxicity of compounds D1 and D2 may be attributed to their poor cell membrane permeability due to the negatively charged carboxylates. […] Overall, targeting DCLK1 inhibited the proliferation of HCT116, indicating the importance of DCLK1 in tumour growth.
A 96-well plate (3599, Corning, USA) was inoculated with 100 μL of complete medium containing 10 000 cells, and the experimental, control, and blank groups were established. Three parallel wells were used per concentration. After 10 h, media from the experimental and control groups were replaced with a complete medium containing the indicated concentration of the compound. Cells were incubated for 72 h before 10 μL of CCK8 reagent (CA1210, Solarbio, China) was added to each well and incubated for 1 h. The absorbance at 450 nm was measured with a microplate reader (Tecan, Switzerland). The IC50 was determined using GraphPad Prism 8 and nonlinear regression curve fitting.

The next series concerns the target T1, DCLK1 (Homo sapiens, UniProt O15075).
T1 construct: purchased Eurofins (Belgium), contract assay service
T1 sequence (O15075 1-740): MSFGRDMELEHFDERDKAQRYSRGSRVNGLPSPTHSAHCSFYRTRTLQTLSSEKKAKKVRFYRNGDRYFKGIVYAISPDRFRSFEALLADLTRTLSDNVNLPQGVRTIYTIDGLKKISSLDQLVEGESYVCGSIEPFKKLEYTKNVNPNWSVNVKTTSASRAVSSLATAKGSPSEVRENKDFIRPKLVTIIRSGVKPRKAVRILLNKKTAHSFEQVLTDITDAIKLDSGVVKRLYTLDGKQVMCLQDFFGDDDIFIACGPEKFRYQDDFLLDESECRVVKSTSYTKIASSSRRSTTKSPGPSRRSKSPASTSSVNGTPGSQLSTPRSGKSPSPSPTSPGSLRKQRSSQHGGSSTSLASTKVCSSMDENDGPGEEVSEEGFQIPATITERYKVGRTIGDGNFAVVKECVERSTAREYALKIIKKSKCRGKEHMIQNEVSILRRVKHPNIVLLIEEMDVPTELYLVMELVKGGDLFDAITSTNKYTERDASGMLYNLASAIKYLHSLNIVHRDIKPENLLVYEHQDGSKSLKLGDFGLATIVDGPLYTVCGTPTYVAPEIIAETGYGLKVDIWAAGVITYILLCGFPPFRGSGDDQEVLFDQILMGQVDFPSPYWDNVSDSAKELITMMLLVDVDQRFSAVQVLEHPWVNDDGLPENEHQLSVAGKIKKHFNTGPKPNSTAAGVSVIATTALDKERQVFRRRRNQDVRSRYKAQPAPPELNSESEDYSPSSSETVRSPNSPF
As to the kind of experiment: In vitro DCLK1 kinase activity assay (Eurofins). Format: biochemical. The following applies: for Selectivity (IC50 of DCLK1/IC50 of LRRK2): ratio of IC50 values; for Selectivity (DCLK1 activity/LRRK2 activity): ratio of remaining activities at 1 uM; for IC50: read-out: IC50 of DCLK1; for activity at 1 µM: remaining kinase activity at 1 uM compound, 100% = no inhibition, 0% = complete inhibition, read-out: DCLK1 activity (%). The source says:
(§1) Eurofins (Belgium) conducted in vitro DCLK1 and LRRK2 kinase activity assays. Compounds were sent as dry powders to Eurofins.

The target in the next series is T2, LRRK2 (Homo sapiens, UniProt Q5S007).
T2 construct: purchased Eurofins (Belgium), contract assay service
In words: In vitro LRRK2 kinase activity assay (Eurofins). Conditions: for activity at 1 µM: remaining kinase activity at 1 uM compound, 100% = no inhibition, 0% = complete inhibition. Format: biochemical. On the procedure: All compounds were tested for their kinase inhibitory activity at the concentration of 1 μM. […] Compounds with high activity or good selectivity were selected for further IC50 determination (Table 2).
as §1

T2 sequence (Q5S007 whole entry): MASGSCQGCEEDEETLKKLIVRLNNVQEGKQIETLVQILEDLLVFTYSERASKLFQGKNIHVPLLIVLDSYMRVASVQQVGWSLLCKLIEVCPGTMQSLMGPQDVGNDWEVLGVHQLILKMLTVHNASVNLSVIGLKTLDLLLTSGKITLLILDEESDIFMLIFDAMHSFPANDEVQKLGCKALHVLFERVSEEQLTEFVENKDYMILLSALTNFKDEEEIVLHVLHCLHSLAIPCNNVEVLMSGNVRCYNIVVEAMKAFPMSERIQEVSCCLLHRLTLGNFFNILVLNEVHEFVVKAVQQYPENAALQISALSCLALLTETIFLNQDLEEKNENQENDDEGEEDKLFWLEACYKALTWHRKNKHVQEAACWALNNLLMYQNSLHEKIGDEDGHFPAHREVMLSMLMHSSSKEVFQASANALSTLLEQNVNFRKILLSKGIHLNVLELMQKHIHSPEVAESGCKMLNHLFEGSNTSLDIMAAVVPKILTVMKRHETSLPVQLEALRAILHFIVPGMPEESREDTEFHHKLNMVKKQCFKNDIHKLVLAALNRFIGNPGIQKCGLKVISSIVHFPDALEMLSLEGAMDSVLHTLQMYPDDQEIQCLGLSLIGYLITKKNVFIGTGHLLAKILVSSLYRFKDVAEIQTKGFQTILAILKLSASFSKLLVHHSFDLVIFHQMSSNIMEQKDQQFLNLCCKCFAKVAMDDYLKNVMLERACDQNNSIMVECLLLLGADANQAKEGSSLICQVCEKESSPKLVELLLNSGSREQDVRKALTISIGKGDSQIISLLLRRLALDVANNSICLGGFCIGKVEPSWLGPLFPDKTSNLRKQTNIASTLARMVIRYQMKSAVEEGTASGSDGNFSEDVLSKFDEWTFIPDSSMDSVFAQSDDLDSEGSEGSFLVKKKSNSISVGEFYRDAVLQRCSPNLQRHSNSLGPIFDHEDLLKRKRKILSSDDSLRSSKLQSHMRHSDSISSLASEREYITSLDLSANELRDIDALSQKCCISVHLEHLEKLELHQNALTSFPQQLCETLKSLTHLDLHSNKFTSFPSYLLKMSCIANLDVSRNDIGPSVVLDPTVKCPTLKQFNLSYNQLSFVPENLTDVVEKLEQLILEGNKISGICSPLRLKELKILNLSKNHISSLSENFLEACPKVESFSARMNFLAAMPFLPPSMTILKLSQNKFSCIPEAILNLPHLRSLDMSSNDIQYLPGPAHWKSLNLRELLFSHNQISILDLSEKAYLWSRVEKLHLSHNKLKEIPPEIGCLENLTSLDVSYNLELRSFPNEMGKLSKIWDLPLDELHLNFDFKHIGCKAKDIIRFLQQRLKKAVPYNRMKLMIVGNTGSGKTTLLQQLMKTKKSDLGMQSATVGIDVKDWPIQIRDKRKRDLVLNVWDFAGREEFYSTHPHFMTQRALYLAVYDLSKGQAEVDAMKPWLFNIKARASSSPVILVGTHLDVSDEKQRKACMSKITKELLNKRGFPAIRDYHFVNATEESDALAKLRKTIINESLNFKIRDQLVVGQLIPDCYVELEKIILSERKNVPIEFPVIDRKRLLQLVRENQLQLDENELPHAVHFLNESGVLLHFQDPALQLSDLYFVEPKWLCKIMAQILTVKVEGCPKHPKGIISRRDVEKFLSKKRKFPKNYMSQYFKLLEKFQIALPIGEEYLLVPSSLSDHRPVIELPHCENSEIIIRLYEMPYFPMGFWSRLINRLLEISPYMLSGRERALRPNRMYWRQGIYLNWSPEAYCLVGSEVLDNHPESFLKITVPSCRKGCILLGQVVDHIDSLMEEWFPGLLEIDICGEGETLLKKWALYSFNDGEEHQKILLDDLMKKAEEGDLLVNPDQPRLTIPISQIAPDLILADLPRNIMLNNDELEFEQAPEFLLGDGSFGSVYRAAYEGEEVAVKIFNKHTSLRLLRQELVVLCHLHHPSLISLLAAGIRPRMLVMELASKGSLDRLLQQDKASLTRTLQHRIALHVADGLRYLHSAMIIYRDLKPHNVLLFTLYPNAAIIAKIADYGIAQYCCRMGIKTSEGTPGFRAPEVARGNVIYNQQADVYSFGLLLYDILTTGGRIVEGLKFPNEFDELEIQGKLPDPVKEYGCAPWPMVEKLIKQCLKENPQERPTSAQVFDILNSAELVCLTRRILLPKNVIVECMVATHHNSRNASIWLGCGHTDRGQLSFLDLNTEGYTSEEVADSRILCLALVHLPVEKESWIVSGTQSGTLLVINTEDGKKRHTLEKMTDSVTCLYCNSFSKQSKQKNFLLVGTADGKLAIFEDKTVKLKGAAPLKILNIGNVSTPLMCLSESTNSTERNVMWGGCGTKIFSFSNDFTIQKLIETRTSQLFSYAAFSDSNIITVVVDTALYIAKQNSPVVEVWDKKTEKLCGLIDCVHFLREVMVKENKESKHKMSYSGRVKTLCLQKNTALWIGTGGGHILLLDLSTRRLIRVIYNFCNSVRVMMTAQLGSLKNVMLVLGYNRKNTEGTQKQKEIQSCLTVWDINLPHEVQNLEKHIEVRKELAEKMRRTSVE

`CCOc1cc(N2CCN(C[C@@]3(O)OC[C@@H](O)[C@@H](O)[C@@H]3O)CC2)ccc1Nc1ncc2c(n1)N(C)c1ccccc1C(=O)N2C` [Compound D7, 2-((2-Ethoxy-4-(4-(((2R,3S,4R,5R)-2,3,4,5-tetrahydroxytetrahydro-2H-pyran-2-yl)methyl)piperazin-1-yl)phenyl)amino)-5,11-dimethyl-5,11-dihydro-6H-benzo[e]pyrimido[5,4-b][1,4]diazepin-6-one]: the melting point – broadly, the temperature of the solid-liquid transition – is 126 to 127 °C. Further, in the series on HCT116, it took 10500 nM to reach half-maximal inhibition (IC50). Also, on DCLK1, the “Selectivity (IC50 of DCLK1/IC50 of LRRK2)” value came to 0.30, the “Selectivity (DCLK1 activity/LRRK2 activity)” value turned out to be 0.29, the IC50 (commonly the concentration needed to halve the response being measured) turned out to be 46 nM and the activity at 1 µM stood at 6%. At LRRK2, this compound gave a concentration for half-maximal inhibition (IC50) of 154 nM and an activity at 1 µM of 21%.
The compound `COc1cc(NC(=O)CCCCCSC(C)=O)ccc1Nc1ncc2c(n1)N(C)c1ccccc1C(=O)N2C` [Compound D8, S-(6-((4-((5,11-dimethyl-6-oxo-6,11-dihydro-5H-benzo[e]pyrimido[5,4-b][1,4]diazepin-2-yl)amino)-3-methoxyphenyl)amino)-6-oxohexyl) ethanethioate] showed a melting point of 159 to 160 °C. Besides, half-maximal inhibition in the series with HCT116 (IC50) required 11500 nM. For the same compound, on DCLK1, the “Selectivity (IC50 of DCLK1/IC50 of LRRK2)” value stood at 0.18, the “Selectivity (DCLK1 activity/LRRK2 activity)” value was determined as 0.36, the IC50 amounted to 40 nM and the activity at 1 µM was found to be 8%. Besides, at LRRK2, 228 nM corresponded to half-maximal inhibition (IC50) and the activity at 1 µM was determined as 22%.
Compound `COc1cc(N2CCCCC2)ccc1Nc1ncc2c(n1)N(C)c1ccccc1C(=O)N2C` [Compound D11, 2-((2-Methoxy-4-(piperidin-1-yl)phenyl)amino)-5,11-dimethyl-5,11-dihydro-6H-benzo[e]pyrimido[5,4-b][1,4]diazepin-6-one] had a melting point of 166 to 167 °C. In the series on HCT116, this compound had an IC50 of 11500 nM. At DCLK1, the “Selectivity (IC50 of DCLK1/IC50 of LRRK2)” value was 0.38, the “Selectivity (DCLK1 activity/LRRK2 activity)” value is recorded as 0.61, the IC50 came out at 100 nM and the activity at 1 µM is 11%. On LRRK2, this compound yielded an IC50 of 266 nM and an activity at 1 µM of 18%.
`COc1cc(N2CCC(OC)CC2)ccc1Nc1ncc2c(n1)N(C)c1ccccc1C(=O)N2C` [Compound D12, 2-((2-Methoxy-4-(4-methoxypiperidin-1-yl)phenyl)amino)-5,11-dimethyl-5,11-dihydro-6H-benzo[e]pyrimido[5,4-b][1,4]diazepin-6-one] showed a melting point of 179 to 180 °C. Moreover, the IC50 in the series with HCT116 was determined as 10100 nM. Further, on DCLK1, the “Selectivity (IC50 of DCLK1/IC50 of LRRK2)” value was 0.47, the “Selectivity (DCLK1 activity/LRRK2 activity)” value was determined as 0.50, the IC50 turned out to be 47 nM and the activity at 1 µM stood at 5%. On LRRK2, this compound came in with an IC50 of 99 nM and an activity at 1 µM of 10%.
`COc1cc(N2CCC(F)(F)CC2)ccc1Nc1ncc2c(n1)N(C)c1ccccc1C(=O)N2C` [Compound D14, 2-((4-(4,4-Difluoropiperidin-1-yl)-2-methoxyphenyl)amino)-5,11-dimethyl-5,11-dihydro-6H-benzo[e]pyrimido[5,4-b][1,4]diazepin-6-one] displayed a melting point of 171 to 172 °C. The compound further had an IC50 in the series on HCT116 of 15500 nM. Besides, on DCLK1, the “Selectivity (IC50 of DCLK1/IC50 of LRRK2)” value was 0.40, the “Selectivity (DCLK1 activity/LRRK2 activity)” value turned out to be 0.44, the IC50 came to 53 nM and the activity at 1 µM is 7%. On LRRK2, this compound returned an IC50 of 132 nM and an activity at 1 µM of 16%.
Compound `COc1cc(N2CCC(C)(O)CC2)ccc1Nc1ncc2c(n1)N(C)c1ccccc1C(=O)N2C` [Compound D15, 2-((4-(4-Hydroxy-4-methylpiperidin-1-yl)-2-methoxyphenyl)amino)-5,11-dimethyl-5,11-dihydro-6H-benzo[e]pyrimido[5,4-b][1,4]diazepin-6-one] had a melting point of 162 to 163 °C. Further, it took 9880 nM to reach half-maximal inhibition in the series with HCT116 (IC50). Besides, at DCLK1, the “Selectivity (IC50 of DCLK1/IC50 of LRRK2)” value is listed as 0.58, the “Selectivity (DCLK1 activity/LRRK2 activity)” value is recorded as 0.44, the IC50 turned out to be 52 nM and the activity at 1 µM was 4%. On LRRK2, half-maximal inhibition (IC50) required 89 nM and the activity at 1 µM stood at 9%.
